The text below walks through data of patent US20050148632A1, “Therapeutic agent for intestinal diseases and visceral pain” (priority 2002, published 2005).

The structures appear in SMILES notation.

For the assay, the system named is 5-hydroxytryptophan (5-HTP)-induced defecation models of mice. Description: Effect on 5-hydroxytryptophan (5-HTP)-induced defecation models of mice in vivo. As to conditions: male SLC:ICR mice; 30 mg/kg orally, 30 minutes before 10 mg/kg 5-HTP s.c.; stool scored during 30 minutes. On the procedure:
Effect on 5-hydroxytryptophan (5-HTP)-induced defecation models of mice in vivo:
The tests were conducted by using (R)-3-(2-(2-(4-methylpiperidine-1-yl)-ethyl)pyrrolidine-1-sulfonyl)phenol (synthesized according to a method described in WO 97/48681) known to be a selective 5-HT7 receptor antagonist as test compound 1 by a method of G. J. Sanger et al. (British Journal of Pharmacology, 130: 706-712, 2000).
Male SLC:ICR mice (6 weeks) were placed in a series of 5 stainless steel cages for mice. After the acclimation for one hour or longer, 30 mg/kg of test compound 1 was orally administered to them (n=10). 30 minutes after, 10 mg/5mL/kg of 5-HTP (or 5 mL/kg of physiological saline in a group in which 5-HTP was not used) was subcutaneously administered to the mice . The stool excreted by each mouse during 30 minutes after the administration was observed (the results were scored as follows: 0: normal stool or no defecation, 1: diarrhea or soft stool). The inhibitory rate (%) of test compound 1 was calculated while the score obtained by subtracting the score of the 5-HTP-free group from the score of the 5-HTP group was determined to be 100%.

Turning to `CC1CCN(CC[C@H]2CCCN2S(=O)(=O)c2cccc(O)c2)CC1` [test compound 1, (R)-3-(2-(2-(4-methylpiperidine-1-yl)-ethyl)pyrrolidine-1-sulfonyl)phenol], the “control rate (inhibitory rate of 5-HTP-induced diarrhea/soft stool score)” value amounted to 70%.
